Results as given in patent publication US20110306570A1, “Na/K-Atpase Expression as an Indicator for the Treatment of Cancer” (UNIVERSITY OF TOLEDO, priority 2008, published 2011).
“Also recorded” adds a separate entry of the source.

Assays:
Na/K-ATPase β1 = Na/K-ATPase β1 expression by Western blot, LLC-PK1 cells; format: cell-based, pig; details: 10 nM ouabain, 24 h
Text: Na/K-ATPase, but also in the formation of tight junctions and in suppression of tumor cell growth.

Na/K-ATPase α1 [1] = biological target: T1, Na/K-ATPase α1 (Homo sapiens, UniProt P05023); test: Na/K-ATPase α1 expression by Western blot, BT20 cells; format: cell-based; design: endogenous in cells; host or cells: BT20, DU145, MDA-MB-435s
Na/K-ATPase α1 [2] = biological target: T1, Na/K-ATPase α1; test: Na/K-ATPase α1 endocytosis by confocal immunostaining, BT20 cells; format: cell-based; design: endogenous in cells; host or cells: BT20; details: 10 nM ouabain
Description: (§1) Na/K-ATPase al was immunostained and visualized using Leica confocal microscope. The red arrows indicate the endocytosed vesicles containing Na/K-ATPase α1.
(§2) The cells were fixed with ice-cold methanol for 15 min and blocked with Signal Enhancer from Invitrogen. Monoclonal anti-Na/K-ATPase α1 antibody was then incubated with the cells overnight at 4° C. After 3 washes, a secondary Alexa 488-conjugated anti-mouse antibody was added and incubated for 2 h at room temperature. The coverslip was washed, mounted and imaged using a Leica confocal microscope.

Na/K-ATPase α1 [3] = biological target: T2, Na/K-ATPase α1 (Sus scrofa, UniProt P05024); test: Na/K-ATPase α1 degradation with cycloheximide, LLC-PK1 cells; format: cell-based, pig; details: cycloheximide pre-treatment, 10 nM ouabain for 6, 16 and 24 h
T2 construct: endogenous in cells; host or cells: LLC-PK1 (ATCC) and its caveolin-1 knock-down line C2-9
Text: Cells without any treatment or only treated with CHX were used as control. The cells were collected at different time points and lysed in RIPA buffer. Equal amount of protein was loaded to analyze the Na/K-ATPase by Western blot. The representative Western blot and the quantification data from 4 experiments were shown. The Na/K-ATPase α1 amount at each time point was normalized against the control at the same time point.

A4-11 cells = test: MTT cell growth assay, Na/K-ATPase knock-down A4-11 cells; format: cell-based, pig; details: ouabain, 16 h
Description: (§3) MTT assay for measuring cell proliferation: Cells were sub-cultured in 96 well plates at 10,000 cells/well in 100 μl culture medium. […] Ten μl MTT reagent (3-4,5-dimethylthiazol-2-yl)-2,5-diphenyltetrazolium bromide) was added to each well for 90 min. The formazan crystal was dissolved with detergent and the OD value was measured at 570 nm.

Na/K-ATPase α1 [4] = biological target: T1, Na/K-ATPase α1; test: Na/K-ATPase α1 expression by Western blot, DU145 cells; format: cell-based; design: endogenous in cells; host or cells: BT20, DU145, MDA-MB-435s; details: ouabain 24 h or 72 h exposure
PY-17 cells = test: MTT cell growth assay, Na/K-ATPase knock-down PY-17 cells; format: cell-based, pig
Description: FIG. 3B: The Na/K-ATPase knock-down cells (PY17) were treated with different digitalis compounds and the cell growth was measured by MTT assay.
as §3

Na/K-ATPase α1 [5] = biological target: T1, Na/K-ATPase α1; test: Na/K-ATPase α1 degradation with cycloheximide, BT-20 cells; format: cell-based; design: endogenous in cells; host or cells: BT20; details: cycloheximide pre-treatment, 10 nM ouabain for 6, 16 and 24 h
Description: FIG. 6C: BT20 cells were treated as in panel B and assayed for Na/K-ATPase α1. *p<0.05.

Na/K-ATPase α1 [6] = biological target: T3, Na/K-ATPase α1 (Mus musculus, UniProt Q8VDN2); test: Na/K-ATPase α1 expression, SYF cells; format: cell-based; details: SYF cells (Src, Yes, Fin knocked out), 0.5 and 1.0 μM ouabain
T3 construct: endogenous in cells; host or cells: SYF cells; SYF cells rescued by c-Src
Text: To further understand the molecular mechanism of ouabain-induced up-regulation of α1, the inventors first addressed the role of Src.

Na/K-ATPase α1 [7] = biological target: T2, Na/K-ATPase α1; test: Na/K-ATPase α1 expression by Western blot, LLC-PK1 cells; format: cell-based, pig
Description: FIG. 7A: LLC-PK1 cells were pre-treated with 10 nM rapamycin or 50 μM LY294002 for 30 min. […] The cell lysates were analyzed for Na/K-ATPase α1 using Western blot.

Na/K-ATPase α1 [8] = biological target: T1, Na/K-ATPase α1; test: Na/K-ATPase α1 endocytosis by confocal immunostaining, DU145 cells; format: cell-based; design: endogenous in cells; host or cells: DU145; details: 10 nM ouabain
Description: as §1, §2

LLC-PK1 cells = test: Cell growth curve (cell counting), LLC-PK1 cells; format: cell-based, pig; details: 10 and 50 nM ouabain
Description: FIG. 1B: The above three cell lines were subcultured in 12-well plates (50,000 cells/well) and serum starved.
Cell growth curve and cell cycle measurement: Cells were sub-cultured in 12 well plates at 50,000/well in 1 ml culture medium for 24 h. […] At each indicated time point, three wells of control or treated cells were trypsinized and counted. For cell cycle measurement, cells were trypsinized and re-suspended in Citrate buffer (8.55% sucrose, 1.18% Na citrated, 5% DMSO, pH 7.6), and stained with propidium iodide (PI). The stained cells were then analyzed by Flow Cytometry.

[9] = biological target: T4, Na/K-ATPase in the plasma membrane (Sus scrofa, UniProt P05024); test: 3H-ouabain binding after ouabain pre-treatment, LLC-PK1 cells; format: cell-based, pig; details: ouabain up to 10 nM, 72 h
T4 construct: endogenous in cells; host or cells: LLC-PK1 (intact cells)
Description: The cells were washed and 3H-ouabain were performed as described herein. * p<0.05, ** p<0.01
To assess the functional consequence of these changes in α1 expression, the inventors measured the number of functional Na/K-ATPase in the plasma membrane.
Afterwards, cells were washed with serum-free medium and subjected to 3H-ouabain binding assay. Briefly, cells were incubated in K+-free Kreb's solution (NaCl 137 mM; KCl 0 mM; CaCl2 2.8 mM; NaH2PO4 0.6 mM; MgSO4 1.2 mM; dextrose; 10 mM; Tris 15 mM; pH7.4) for 15 min, and then exposed to 100 nM 3H-ouabain for 30 min at 37° C. At the end of incubation, the cells were washed 3 times with ice-cold K+-free Kreb's solution, solubilized in 0.1M NaOH-0.2% SDS, and counted in a scintillation counter for 3H-ouabain. […] Paralleled plates were used for counting cell numbers. 3H-ouabain binding data were calculated as binding sites per cell.

Akt [10] = test: Akt phosphorylation (pAkt) by Western blot, C2-9 cells; format: cell-based, pig; details: ouabain 15 min
Description: The cell lysates were analyzed for pAkt.

Akt [11] = test: Akt phosphorylation (pAkt) by Western blot, BT20 cells; format: cell-based, human; details: ouabain 15 min

`C[C@@H]1O[C@@H](O[C@H]2C[C@@H](O)[C@]3(CO)[C@H]4[C@H](O)C[C@]5(C)[C@@H](C6=CC(=O)OC6)CC[C@]5(O)[C@@H]4CC[C@]3(O)C2)[C@H](O)[C@H](O)[C@H]1O` [ouabain] was tested, and the “Na/K-ATPase β1 expression” value (Na/K-ATPase β1) was “modest increase in β1 expression”, the “cellular amount of Na/K-ATPase α1” value (Na/K-ATPase α1 [1]; BT20 cells, ouabain 24 h or 72 h exposure) was “reduced the cellular amount of α1” and the “Na/K-ATPase α1 expression, 72 h versus 24 h” value (Na/K-ATPase α1 [1]; BT-20 cells, after 72 h of ouabain exposure) was “further reduction in al expression”. For the same compound, the “endocytosis of Na/K-ATPase α1 (α1-positive vesicles)” value (Na/K-ATPase α1 [2]) was “many al-positive vesicles were accumulated”, the “degradation of Na/K-ATPase α1 subunit” value (Na/K-ATPase α1 [3]) was “more degradation of al subunit; also recorded: more degradation of the a1 subunit” and the “growth stimulation (MTT)” value (A4-11 cells) was “No growth stimulation was detected”. The “cellular amount of Na/K-ATPase α1” value (Na/K-ATPase α1 [4]) was “reduced the cellular amount of α1”, the “growth stimulation (MTT)” value (PY-17 cells; PY17 cells, ouabain, 16 h) was “No growth stimulation was detected” and the “reduction in cell growth (MTT)” value (PY-17 cells; PY-17 cells, 10 nM ouabain) was “more than 30%”. The “degradation of Na/K-ATPase α1 subunit” value (Na/K-ATPase α1 [5]) was “more degradation of al subunit; also recorded: more degradation of the a1 subunit”, the “ouabain-induced α1 expression” value (Na/K-ATPase α1 [6]) was “completely blocked ouabain-induced α1 expression” and the “α1 expression with ouabain in the presence of rapamycin” value (Na/K-ATPase α1 [7]; 10 nM rapamycin pre-treatment, 10 nM ouabain 24 h) was “further decrease in the expression of al; also recorded: further decrease in the expression of a1”. For the same compound, the “Na/K-ATPase α1 expression” value (Na/K-ATPase α1 [7]; ouabain 24 h or 72 h exposure) was “induction of α1 expression”, the “endocytosis of Na/K-ATPase α1 (α1-positive vesicles)” value (Na/K-ATPase α1 [8]) was “many al-positive vesicles were accumulated” and the “cell number as a function of time” value (LLC-PK1 cells) was “increased the number of LLC-PK1 cells in a time-dependent manner”. For the same compound, the “number of 3H-ouabain binding sites (functional plasma membrane Na/K-ATPase)” value [9] was “barely changed the number of binding sites”, the “Akt stimulation (pAkt)” value (Akt [10]) was “failed to stimulate Akt” and the Akt phosphorylation (Akt [11]) was “failed to do so”.
